pIC50: −log10 of the molar value.
Experiments:
[1] = target: T1, full-length SHP2-E76K oncogenic mutant (Homo sapiens, UniProt Q06124, E76K); assay: DiFMUP fluorescence phosphatase inhibition assay, SHP2-E76K; assay type: biochemical; details: DiFMUP at Km (20 μM), 10-point dose–response, pH 6.0
T1 construct: Recombinant human full-length SHP2 (1–594) WT and E76K mutants; made in house
T1 sequence (Q06124 1-593 E76K): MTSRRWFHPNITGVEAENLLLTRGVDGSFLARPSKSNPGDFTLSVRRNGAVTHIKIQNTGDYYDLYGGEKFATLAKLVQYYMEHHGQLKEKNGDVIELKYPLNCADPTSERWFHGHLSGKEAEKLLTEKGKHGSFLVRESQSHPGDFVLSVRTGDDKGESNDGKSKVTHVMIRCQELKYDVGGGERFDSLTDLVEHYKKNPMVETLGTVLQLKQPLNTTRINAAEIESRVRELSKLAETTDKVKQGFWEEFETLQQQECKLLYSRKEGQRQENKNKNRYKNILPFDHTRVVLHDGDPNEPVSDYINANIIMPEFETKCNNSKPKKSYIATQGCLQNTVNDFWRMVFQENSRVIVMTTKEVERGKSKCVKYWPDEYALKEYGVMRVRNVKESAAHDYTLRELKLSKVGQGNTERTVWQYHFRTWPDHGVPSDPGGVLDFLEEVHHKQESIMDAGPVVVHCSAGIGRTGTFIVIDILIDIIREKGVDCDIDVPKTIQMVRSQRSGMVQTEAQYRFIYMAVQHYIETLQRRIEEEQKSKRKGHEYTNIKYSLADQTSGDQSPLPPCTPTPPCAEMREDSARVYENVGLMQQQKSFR
Text: (§1) To test the synthesized compounds for their potential to inhibit SHP2 activity, a fluorescence intensity-based assay using 6,8-difluoro-4-methylumbelliferyl phosphate (DiFMUP) as the substrate was adapted for three recombinant SHP2 constructs: (1) the SHP2 catalytic domain (SHP2cat; residues 248–527), (2) the full-length SHP2-E76K oncogenic mutant, and (3) the full-length SHP2 WT (SHP2-WT). The recombinant SHP2 proteins were expressed and purified as described previously ([36]). A dually phosphorylated peptide derived from the insulin receptor substrate 1 (IRS-1) served as a surrogate binding protein and was used to activate SHP2-WT ([30], [36]). […] Michaelis–Menten experiments to determine the DiFMUP Michaelis–Menten constant (Km) for each SHP2 construct were performed as described previously ([36]) and yielded the following values: SHP2-WT, Km = 60 μM; SHP2-E76K, Km = 20 μM; and SHP2cat, Km = 20 μM. Relative maximum rates (Vmax) of the DiFMUP reactions expressed as relative fluorescence units per minute (RFU/min) were as follows: SHP2-WT, Vmax = 871 RFU/min; SHP2-E76K, Vmax = 2730 RFU/min; and SHP2cat, Vmax = 2912 RFU/min. IC50 values for each compound were determined from initial rates in 10-point dose–response assays using DiFMUP at a concentration corresponding to its Km value for the respective SHP2 construct. […] Replacements for the benzothiophenone were explored using analog #10.
(§2) Recombinant human full-length SHP2 (1–594) WT and E76K mutants, as well as the SHP2cat (248–527), were expressed and purified as described before ([36], [41]). Recombinant human PTP1B (1–300) and the codon-optimized STEP (280–566) catalytic domains were cloned into PET-15b and expressed as N-His-tagged fusion proteins. For expression, transformed BL21(DE3) cells were grown and induced similar as described for SHP2. Collected cells were resuspended in lysis buffer (25 mM Tris, pH 7.5, 300 mM NaCl, 50 mM imidazole, and 10% glycerol) with 100 mg/l RNaseA and were lysed with two passages using a microfluidizer. The lysate was clarified by centrifugation at 15,000g for 50 min and applied to nickel–nitrilotriacetic acid resin. The column resin was washed, and the PTP1B or STEP protein was eluted in lysis buffer at 300 mM imidazole. The PTP1B or STEP protein was further purified by S75 size-exclusion chromatography in 50 mM Tris, pH 7.5, 50 mM NaCl. The eluted peak fractions were supplemented with tris(2-carboxyethyl)phosphine to 10 mM, concentrated by ultrafiltration, and stored at −80 °C. The purified yield of PTP1B was 33 mg/l cell culture; the yield of STEP was 16 mg/l cell culture.
(§3) SHP2 inhibitors were tested at RT in a 384-well plate format standard phosphatase fluorescence intensity assay using DiFMUP (Invitrogen/Thermo Fisher Scientific) as a substrate and a total reaction volume of 25 μl. SHP2 inhibitors or vehicle (DMSO) were spotted in triplicate into a black Greiner FLUOTRAC 200 384-well microplate (catalog no.: 781076; Greiner) for a 10-point dose–response assay using an Echo 555 Liquid Handler (Labcyte, Inc). PTP working solutions were prepared at a 0.625 nM concentration (for a final concentration of 0.5 nM) in buffer containing 50 mM Bis–Tris, pH 6.0, 50 mM NaCl, 5 mM DTT, and 0.01% Tween-20. Prior to the assay, a dually phosphorylated IRS-1 peptide (625 nM [500 nM final] ([30])) was added to full-length WT SHP2 working solutions and incubated for 20 min. DiFMUP working solutions at 5× final concentration were prepared in 50 mM Bis–Tris, pH 6.0, 50 mM NaCl, and 0.01% Tween-20. About 20 μl of PTP working solution was dispensed into the microplate and incubated with inhibitor for 20 min at RT. […] The reaction was initiated by addition of 5 μl DiFMUP working solutions. Fluorescence intensity was measured in kinetic mode (every minute for 7 or 10 min) using a Tecan Spark Multimode Microplate Reader (Tecan) with an excitation wavelength of 360 nm and an emission wavelength of 460 nm. […]

[2] = target: T2, full-length SHP2 WT (SHP2-WT) (Homo sapiens, UniProt Q06124); assay: DiFMUP fluorescence phosphatase inhibition assay, SHP2-WT activated with IRS-1 peptide; assay type: biochemical; details: DiFMUP at Km (60 μM), pH 6.0
T2 construct: Recombinant human full-length SHP2 (1–594) WT and E76K mutants; made in house
Text: as §1, §2, §3

pIC50 [1]	pIC50 [2]	Structure (SMILES)
5.38	4.96	N#Cc1cc(-c2ccc(/C=C3\Sc4ccccc4C3=O)o2)ccc1O [SBI-3404, (Z)-2-Hydroxy-5-(5-((3-oxobenzo[b]thiophen-2(3H)-ylidene)methyl)furan-2-yl)benzonitrile]
5.39	5.38	O=C1/C(=C/c2ccc(-c3ccc(O)c(-c4nn[nH]n4)c3)o2)Sc2ccccc21 [SBI-3405, (Z)-2-((5-(4-Hydroxy-3-(2H-tetrazol-5-yl)phenyl)furan-2-yl)methylene)benzo[b]thiophen-3(2H)-one]

More lines, now with the values behind:

Structure (SMILES)	pIC50 [1]	pIC50 [2]
Nc1ccc(NC(=O)c2cc(-c3ccc(/C=C4\Sc5ccccc5C4=O)o3)ccc2O)cc1 [SBI-2130, (Z)-N-(4-Aminophenyl)-2-hydroxy-5-(5-((3-oxobenzo[b]thiophen-2(3H)-ylidene)methyl)furan-2-yl)benzamide]	6.32	5.30
O=C1CCCC1=Cc1ccc(-c2ccc(O)c(C(=O)Nc3ccccc3)c2)o1 [SBI-3192, 2-Hydroxy-5-(5-((2-oxocyclopentylidene)methyl)furan-2-yl)-N-phenylbenzamide]	5.64	5.39
O=C(Nc1ccccc1)c1cc(-c2ccc(/C=C3\Sc4ccccc4C3=O)o2)ccc1O [SBI-4668, (Z)-2-Hydroxy-5-(5-((3-oxobenzo[b]thiophen-2(3H)-ylidene)methyl)furan-2-yl)-N-phenylbenzamide]	5.74	4.82

From article PMC8760490, “Discovery of novel furanylbenzamide inhibitors that target oncogenic tyrosine phosphatase SHP2 in leukemia cells” (The Journal of Biological Chemistry, 2021)
